These results are taken from BindingDB's records for patent US20240343694 (Korea Reserarch Institute of Chemical Technology, 2024).

Bounds are passed on as bounds.

For assay [1], the target named is T1, Epidermal growth factor receptor [1-763,'FHEA',764-1210] (UniProt P00533).
T1 construct: 1-763,'FHEA',764-1210
The assay is described as follows: Inhibitory Activity of Compounds Against EGFR Mutant Enzyme. As to the method: (§1) The activity of the compounds of the present invention against EGFR mutant enzymes was measured using the HTRF system purchased from Cisbio as follows. For an EGFR mutant enzyme, the EGFR del19 enzyme was a recombinant protein purchased from Carna Biosciences, and the EGFR A763_Y764insFHEA enzyme was a recombinant protein purchased from SignalChem, respectively.The composition of the assay buffer used for activity measurement was 50 mM tris-HCl pH 7.5, 100 mM NaCl, 7.5 mM MgCl2, 3 mM KCl, 0.01% tween 20, 0.1% BSA, and 1 mM DTT. An enzymatic reaction was performed using a peptide substrate labeled with ATP at a concentration of […] and biotin at a concentration of […]. The analysis of the inhibitory effect of the compounds on EGFR activity was performed according to the following method.Component 1:4 μL of EGFR mutant enzymeComponent 2:2 μL of compound solutionComponent 3:4 μL of ATP and a biotin labeled peptideThe enzyme reaction begins by first mixing component 1 and component 2 and then adding component 3 thereto. After the reaction at 37° C. for 2 hours, […] of a measurement solution consisting of streptavidin-XL665 and a europium-labeled anti-phosphotyrosine antibody purchased from Cisbio was added to the enzyme reaction solution and reacted at room temperature for 1 hour. Finally, the ratio of fluorescence values at 615 nm and 665 nm was measured using Perkin-Elmer's Envision instrument to calculate enzyme activity and confirm the inhibitory ability of the compounds.

In assay [2] the target is T2, Epidermal growth factor receptor [DEL746-750] (Homo sapiens, UniProt P00533).
T2 construct: gene EGFR
The assay is described as above. Here is the method: as §1

The target of assay [3] is T3, Receptor tyrosine-protein kinase erbB-2 [1-775,'YVMA',776-1255] (Homo sapiens, UniProt P04626).
T3 construct: 1-775,'YVMA',776-1255
The assay is described as follows: Inhibitory Activity of Compounds Against HER2 A775_G776insYVMA mutant enzyme. As to the method: The activity of the compounds of the present invention against HER mutant enzymes was measured using the HTRF system purchased by Cisbio as follows. As a HER2 mutant enzyme, the HER2 A775_G776insYVMA mutant enzyme was used by purchasing a recombinant protein provided by Carna Biosciences.The composition of the assay buffer used for activity measurement was 50 mM tris-HCl pH 7.5, 100 mM NaCl, 7.5 mM MgCl2, 3 mM KCl, 0.01% tween 20, 0.1% BSA, and 1 mM DTT. In addition thereto, the enzymatic reaction was performed using a peptide substrate labeled with ATP at a concentration of […] and biotin at a concentration of […]. The analysis of the activity inhibitory effect of the compounds on HER2 A775_G776insYVMA mutation was performed according to the following method.Component 1:4 μL of HER2 A775_G776insYVMA mutant enzymeComponent 2:2 μL of compound solutionComponent 3:4 μL of ATP and a biotin labeled peptideThe enzyme reaction begins by first mixing component 1 and component 2 and then adding component 3 thereto. After the reaction at 37° C. for 2 hours, […] of a measurement solution consisting of streptavidin-XL665 and a europium-labeled anti-phosphotyrosine antibody purchased from Cisbio was added to the enzyme reaction solution and reacted at room temperature for 1 hour. Finally, the ratio of fluorescence values at 615 nm and 665 nm was measured using Perkin-Elmer's Envision equipment to calculate enzyme activity and confirm the inhibitory ability of the compounds.

Assay [4] addresses T4, Epidermal growth factor receptor [DEL746-750] (Homo sapiens, UniProt P00533, DEL746-750).
T4 construct: gene EGFR
The assay is described as follows: Inhibitory Activity of Compounds Against EGFR Mutant Enzyme. Here is the method: as §1

T3 sequence (P04626 with tags, fused parts or gaps INS775YVMA limits assumed): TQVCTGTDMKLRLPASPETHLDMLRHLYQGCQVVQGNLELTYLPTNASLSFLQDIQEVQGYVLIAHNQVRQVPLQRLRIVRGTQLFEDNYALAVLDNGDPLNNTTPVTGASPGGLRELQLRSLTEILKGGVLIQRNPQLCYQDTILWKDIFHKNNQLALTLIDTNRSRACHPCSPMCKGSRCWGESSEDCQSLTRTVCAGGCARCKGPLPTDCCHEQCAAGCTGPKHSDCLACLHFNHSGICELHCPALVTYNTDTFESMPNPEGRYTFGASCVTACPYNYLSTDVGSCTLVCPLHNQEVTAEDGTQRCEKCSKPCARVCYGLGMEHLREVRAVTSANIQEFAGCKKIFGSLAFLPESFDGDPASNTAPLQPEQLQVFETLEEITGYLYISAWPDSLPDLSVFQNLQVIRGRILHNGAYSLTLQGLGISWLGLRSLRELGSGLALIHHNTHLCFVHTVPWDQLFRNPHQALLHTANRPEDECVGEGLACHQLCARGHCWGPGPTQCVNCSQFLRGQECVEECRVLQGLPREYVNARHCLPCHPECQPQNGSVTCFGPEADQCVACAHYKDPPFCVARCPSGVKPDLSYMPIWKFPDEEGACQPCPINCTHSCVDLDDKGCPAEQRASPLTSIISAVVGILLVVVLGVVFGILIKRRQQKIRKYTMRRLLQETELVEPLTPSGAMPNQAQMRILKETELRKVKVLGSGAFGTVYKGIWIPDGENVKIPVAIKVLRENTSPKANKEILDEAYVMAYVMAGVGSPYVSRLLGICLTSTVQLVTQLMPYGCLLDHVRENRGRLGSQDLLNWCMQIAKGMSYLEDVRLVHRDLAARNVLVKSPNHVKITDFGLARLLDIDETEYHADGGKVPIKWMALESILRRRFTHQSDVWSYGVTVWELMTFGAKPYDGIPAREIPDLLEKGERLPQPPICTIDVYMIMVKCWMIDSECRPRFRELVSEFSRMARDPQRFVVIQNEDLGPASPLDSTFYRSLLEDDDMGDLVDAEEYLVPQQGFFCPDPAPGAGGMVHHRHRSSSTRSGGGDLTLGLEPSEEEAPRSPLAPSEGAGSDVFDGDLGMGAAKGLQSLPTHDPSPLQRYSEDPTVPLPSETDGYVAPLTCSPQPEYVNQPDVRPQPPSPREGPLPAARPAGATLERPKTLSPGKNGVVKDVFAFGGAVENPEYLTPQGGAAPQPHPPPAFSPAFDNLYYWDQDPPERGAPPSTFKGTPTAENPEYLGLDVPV
T2 sequence (P00533 with tags, fused parts or gaps DEL746-750 limits assumed, stated change not applied): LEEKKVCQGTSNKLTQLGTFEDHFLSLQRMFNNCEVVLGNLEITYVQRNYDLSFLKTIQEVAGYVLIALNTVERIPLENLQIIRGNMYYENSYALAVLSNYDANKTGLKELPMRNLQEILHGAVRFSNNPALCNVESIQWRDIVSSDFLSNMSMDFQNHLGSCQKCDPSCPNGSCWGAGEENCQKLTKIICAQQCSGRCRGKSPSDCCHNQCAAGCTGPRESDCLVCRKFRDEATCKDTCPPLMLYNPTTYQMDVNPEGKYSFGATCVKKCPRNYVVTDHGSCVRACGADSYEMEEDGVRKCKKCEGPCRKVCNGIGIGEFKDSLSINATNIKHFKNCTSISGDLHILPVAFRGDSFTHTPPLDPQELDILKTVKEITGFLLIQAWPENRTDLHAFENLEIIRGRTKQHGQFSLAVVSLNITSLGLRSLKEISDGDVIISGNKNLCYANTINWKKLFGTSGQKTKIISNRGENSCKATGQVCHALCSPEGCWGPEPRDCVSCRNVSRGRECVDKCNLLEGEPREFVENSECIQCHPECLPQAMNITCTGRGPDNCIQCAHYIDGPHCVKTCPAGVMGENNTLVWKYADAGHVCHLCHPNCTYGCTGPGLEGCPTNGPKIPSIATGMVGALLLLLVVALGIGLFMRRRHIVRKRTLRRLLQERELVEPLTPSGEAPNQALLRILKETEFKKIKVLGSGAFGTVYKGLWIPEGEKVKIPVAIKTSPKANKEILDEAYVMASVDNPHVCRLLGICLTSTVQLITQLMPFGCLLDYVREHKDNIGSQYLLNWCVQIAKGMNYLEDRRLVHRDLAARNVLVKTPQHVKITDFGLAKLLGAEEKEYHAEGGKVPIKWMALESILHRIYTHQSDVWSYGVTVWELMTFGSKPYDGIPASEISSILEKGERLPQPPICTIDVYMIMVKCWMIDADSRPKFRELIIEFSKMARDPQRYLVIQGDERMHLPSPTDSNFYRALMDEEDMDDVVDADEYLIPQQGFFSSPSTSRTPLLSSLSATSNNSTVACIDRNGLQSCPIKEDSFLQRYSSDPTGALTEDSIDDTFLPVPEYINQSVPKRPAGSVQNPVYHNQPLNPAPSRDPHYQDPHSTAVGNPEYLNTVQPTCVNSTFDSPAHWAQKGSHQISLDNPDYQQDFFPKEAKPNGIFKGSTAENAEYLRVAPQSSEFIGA
T1 sequence (P00533 with tags, fused parts or gaps INS763FHEA limits assumed): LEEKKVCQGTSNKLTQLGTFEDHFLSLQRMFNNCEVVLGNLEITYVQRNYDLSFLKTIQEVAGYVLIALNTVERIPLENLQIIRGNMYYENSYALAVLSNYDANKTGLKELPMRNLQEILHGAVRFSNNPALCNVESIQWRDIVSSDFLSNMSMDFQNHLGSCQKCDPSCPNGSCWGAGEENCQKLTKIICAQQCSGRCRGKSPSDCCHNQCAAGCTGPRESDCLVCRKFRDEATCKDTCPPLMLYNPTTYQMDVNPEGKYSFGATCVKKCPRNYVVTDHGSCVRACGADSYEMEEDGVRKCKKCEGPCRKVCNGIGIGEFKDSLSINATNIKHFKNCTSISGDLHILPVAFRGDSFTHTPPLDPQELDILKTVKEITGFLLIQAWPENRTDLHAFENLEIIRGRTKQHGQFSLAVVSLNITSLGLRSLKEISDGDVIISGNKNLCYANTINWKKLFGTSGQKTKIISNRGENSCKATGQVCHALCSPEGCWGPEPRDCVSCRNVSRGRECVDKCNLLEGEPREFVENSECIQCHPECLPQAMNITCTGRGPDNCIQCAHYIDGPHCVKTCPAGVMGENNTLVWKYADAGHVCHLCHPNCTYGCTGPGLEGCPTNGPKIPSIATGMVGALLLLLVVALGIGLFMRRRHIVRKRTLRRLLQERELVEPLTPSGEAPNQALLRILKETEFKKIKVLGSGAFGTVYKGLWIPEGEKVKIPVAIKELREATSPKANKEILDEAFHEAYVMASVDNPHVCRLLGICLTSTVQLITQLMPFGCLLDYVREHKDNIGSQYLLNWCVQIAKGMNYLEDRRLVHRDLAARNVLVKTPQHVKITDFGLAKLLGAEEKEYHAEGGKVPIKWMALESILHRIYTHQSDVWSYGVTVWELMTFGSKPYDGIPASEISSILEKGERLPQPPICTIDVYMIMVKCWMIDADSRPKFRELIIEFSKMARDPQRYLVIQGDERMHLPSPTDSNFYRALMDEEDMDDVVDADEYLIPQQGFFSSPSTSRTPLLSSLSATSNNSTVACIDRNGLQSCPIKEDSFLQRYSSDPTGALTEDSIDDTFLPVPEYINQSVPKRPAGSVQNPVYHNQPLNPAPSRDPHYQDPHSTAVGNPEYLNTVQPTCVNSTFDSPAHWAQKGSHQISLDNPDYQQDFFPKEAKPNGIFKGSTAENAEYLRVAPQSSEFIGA
T4 sequence (P00533 with tags, fused parts or gaps DEL746-750 limits assumed): as the sequence (P00533 with tags, fused parts or gaps DEL746-750 limits assumed, stated change not applied) above

Consider `C=CC(=O)Nc1cc(Nc2ncc(Cl)c(Nc3cccc4c3N(S(C)(=O)=O)CCC4)n2)c(OC)cc1N(C)CCN(C)C(=O)OC(C)(C)C` [US20240343694, Example 58], for which the IC50 in assay [1] is 10 nM; in assay [2], less than 1 nM; in assay [3], 90 nM.

In the case of `C=CC(=O)Nc1cc(N)c(OC)cc1N1CCC(N(C)C)CC1` [US20240343694, Example 59], the half-maximal inhibitory concentration (IC50) was less than 1 nM in assay [1], less than 1 nM in assay [2] and 20 nM in assay [3].

For `C=CC(=O)Nc1cc(N)c(OC)cc1N1CCC(N2CCN(C)CC2)CC1` [US20240343694, Example 60], the values for the IC50 in assay [1], in assay [2] and in assay [3] were less than 1 nM, less than 1 nM and 10 nM, respectively.

Consider `COC(=O)c1cnc(Cl)nc1Nc1cccc2c1N(S(C)(=O)=O)CCC2` [US20240343694, Example 61], for which the IC50 in assay [1] was less than 1 nM; in assay [2], less than 1 nM; in assay [3] it was 1 nM.

Regarding `C=C(F)C(=O)Nc1cc(N)c(OC)cc1N(C)CCN(C)C` [US20240343694, Example 64], the IC50 in assay [1] was less than 1 nM; in assay [2] it was less than 1 nM; in assay [3] it was 3 nM.

On to `CS(=O)(=O)N1CCc2cccc(Nc3nc(Cl)ncc3Cl)c21` [US20240343694, Example 65], for which the results for the 50% inhibitory concentration (IC50) in assay [1], in assay [2] and in assay [3] were less than 1 nM, less than 1 nM and 15 nM, respectively.

Regarding `CCS(=O)(=O)N1CCc2cccc(Nc3nc(Cl)ncc3Cl)c21` [US20240343694, Example 66], the values for the 50% inhibitory concentration (IC50) in assay [1], in assay [2] and in assay [3] were less than 1 nM, less than 1 nM and 5 nM, respectively.

On to `C=CC(=O)Nc1cc(Nc2ncc(Cl)c(Nc3cccc4c3N(S(C)(=O)=O)CC4)n2)c(OC)cc1N(C)CCN(C)C(=O)OC(C)(C)C` [US20240343694, Example 67], for which the IC50 in assay [1] is less than 1 nM; in assay [2], less than 1 nM; in assay [3], 81 nM.

As to `COC(=O)c1cnc(Cl)nc1Nc1cccc2c1N(S(C)(=O)=O)CC2` [US20240343694, Example 68], the IC50 is less than 1 nM in assay [1], less than 1 nM in assay [2] and 6 nM in assay [3].

Turning to `CC(C)OC(=O)c1cnc(Cl)nc1Nc1cccc2c1N(S(C)(=O)=O)CC2` [US20240343694, Example 69], the IC50 in assay [1] is less than 1 nM; in assay [4], less than 1 nM; in assay [3], 6 nM.

For the compound `CS(=O)(=O)N1CCc2cccc(Nc3nc(Cl)ncc3C#N)c21` [US20240343694, Example 70], the IC50 was 4 nM in assay [1], less than 1 nM in assay [2] and 33 nM in assay [3].

Regarding `C=CC(=O)Nc1cc(N)c(OC)cc1OCCN(C)C` [US20240343694, Example 71], the IC50 in assay [1] was 5 nM; in assay [2] it was less than 1 nM; in assay [3] it was 61 nM.

With `CS(=O)(=O)N1CCc2cccc(Nc3nc(Cl)ncc3C(F)(F)F)c21` [US20240343694, Example 73], the figures for the IC50 in assay [1], in assay [2] and in assay [3] were less than 1 nM, less than 1 nM and 5 nM, respectively.

For `CS(=O)(=O)n1ccc2cccc(Nc3nc(Cl)ncc3Cl)c21` [US20240343694, Example 74], the concentration for half-maximal inhibition (IC50) in assay [1], in assay [2] and in assay [3] was less than 1 nM each time.

On to `CN(c1c(Nc2nc(Cl)ncc2Cl)ccc2nccnc12)S(C)(=O)=O` [US20240343694, Example 75], for which the half-maximal inhibitory concentration (IC50) in assay [1] was less than 1 nM; in assay [2] it was less than 1 nM; in assay [3] it was 3 nM.

Regarding `CS(=O)(=O)Nc1c(Nc2nc(Cl)ncc2Cl)ccc2nccnc12` [US20240343694, Example 76], the results for the IC50 in assay [1], in assay [2] and in assay [3] were less than 1 nM, less than 1 nM and 1 nM, respectively.

Turning to `O=S1(=O)CCCN1c1ccccc1Nc1nc(Cl)ncc1Cl` [US20240343694, Example 77], the half-inhibitory concentration (IC50) in assay [1] is less than 1 nM; in assay [2], less than 1 nM; in assay [3], 2 nM.

For `O=S1(=O)CCCCN1c1ccccc1Nc1nc(Cl)ncc1Cl` [US20240343694, Example 78], the IC50 in assay [1] is less than 1 nM; in assay [2], less than 1 nM; in assay [3], 3 nM.

Regarding `C=CC(=O)Nc1cc(N)c(OC)cc1N(C)CCN1CCN(C)CC1` [US20240343694, Example 79], the IC50 in assay [1] was less than 1 nM; in assay [2], less than 1 nM; in assay [3] it was 1 nM.

`C=CC(=O)Nc1cc(N)c(OC)cc1OCCN1CCOCC1` [US20240343694, Example 80]: the IC50 in assay [1] was less than 1 nM; in assay [2], less than 1 nM; in assay [3], 1 nM.

Take `C=CC(=O)Nc1cc(N)c(OC)cc1OCCN1CCCCC1` [US20240343694, Example 81]: the IC50 in assay [1], in assay [2] and in assay [3] was less than 1 nM in each case.

For the compound `C=CC(=O)Nc1cc(N)c(OC)cc1N(C)CCN1CCC1` [US20240343694, Example 82], the IC50 in assay [1] was less than 1 nM; in assay [2], less than 1 nM; in assay [3] it was 2 nM.

In the case of `CC(=O)Nc1c([N+](=O)[O-])ccc(C)c1C` [US20240343694, Example 83], the IC50 came to 19 nM in assay [1], 3 nM in assay [2] and 374 nM in assay [3].

Take `CC(=O)N(C)c1c([N+](=O)[O-])ccc(C)c1C` [US20240343694, Example 84]: the IC50 in assay [1] is 3 nM; in assay [2] it was 1 nM; in assay [3], 52 nM.

Regarding `CC(=O)N(C)c1c(N)ccc(C)c1C` [US20240343694, Example 85], the IC50 in assay [1] stood at 43 nM; in assay [2] it was 18 nM; in assay [3], 871 nM.

With `CC(=O)N(C)c1c(Nc2nc(Cl)ncc2Cl)ccc(C)c1C` [US20240343694, Example 86], the results for the concentration for half-maximal inhibition (IC50) in assay [1], in assay [2] and in assay [3] were 20 nM, 2 nM and 157 nM, respectively.

On to `CC(=O)Nc1c(Nc2nc(Cl)ncc2Cl)ccc(C)c1C` [US20240343694, Example 87], for which the values for the half-inhibitory concentration (IC50) in assay [1], in assay [2] and in assay [3] were 24 nM, 4 nM and 107 nM, respectively.

On to `CC(=O)N(C)c1c(C)cccc1Nc1nc(Cl)ncc1Cl` [US20240343694, Example 88], for which the half-inhibitory concentration (IC50) is 2 nM in assay [1], less than 1 nM in assay [2] and 14 nM in assay [3].

In the case of `CC(=O)Nc1c(C)cccc1Nc1nc(Cl)ncc1Cl` [US20240343694, Example 89], the IC50 in assay [1] was 77 nM; in assay [2] it was 20 nM; in assay [3], 479 nM.

By IC50 is commonly meant the concentration that inhibits the measured activity by half.
